Assay results as given in the supplement of paper PMC9512659.

Tests used:
[1] = test system: Mycobacterium tuberculosis Erdman (pMV306hsp+LuxG13); test: GRinf, normalised growth-rate inhibition at infinite dose (GR value (unitless, negative = killing)); higher = less potent
Method: (§1)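 DiaMOND pairwise dose responses of an equipotent two-drug mixture (1.5-fold, 10-dose series) against autoluminescent M. tuberculosis Erdman in 384-well plates. Growth inhibition was read by OD600 (luminescence for dormancy) in seven media at a constant and a terminal time point; metrics are means of at least biological duplicates. Einf and AUC25 higher = more potent; GRinf lower = more potent; log2FIC negative = synergy.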

[2] = test system: Mycobacterium tuberculosis Erdman (pMV306hsp+LuxG13); test: log2 fractional inhibitory concentration at 90% inhibition (log2 FIC); higher = more antagonistic
Method: as §1

[3] = test system: Mycobacterium tuberculosis Erdman (pMV306hsp+LuxG13); test: Einf, effect of the drug pair at infinite dose (maximum growth inhibition) (fraction inhibition (0-1)); higher = more potent; extreme values may be limits of the assay
Method: as §1

[4] = test system: Mycobacterium tuberculosis Erdman (pMV306hsp+LuxG13); test: log2 fractional inhibitory concentration at 50% inhibition (log2 FIC); higher = more antagonistic
Method: as §1

[5] = test system: Mycobacterium tuberculosis Erdman (pMV306hsp+LuxG13); test: AUC25, normalised area under the dose-response curve up to IC25 (normalised AUC (unitless)); higher = more potent
Method: as §1

COc1c(N2C[C@@H]3CCCN[C@@H]3C2)c(F)cc2c(=O)c(C(=O)O)cn(C3CC3)c12 [moxifloxacin] + CC(=O)NC[C@H]1CN(c2ccc(N3CCSCC3)c(F)c2)C(=O)O1 [sutezolid]
Details | AUC25, [5] | Einf, [3] | GRinf, [1] | log2 fractional inhibitory concentration, [2] | log2 fractional inhibitory concentration, [4]
growth medium: acidic pH 5.7, glycerol, time point: constant time point | 0.153 | 0.884 | -0.618 | – | -0.766
growth medium: acidic pH 5.7, glycerol, time point: terminal time point | 0.126 | 0.994 | -0.27 | 0.0336 | -0.628
growth medium: butyrate 5 mM, time point: constant time point | 0.0856 | 0.921 | 0.0433 | – | 2.18
growth medium: butyrate 5 mM, time point: terminal time point | 0.0636 | 0.96 | 0.0229 | 2.06 | 1.99
growth medium: cholesterol 0.05 mM, time point: constant time point | 0.0609 | 0.744 | -0.918 | – | 0.274
growth medium: cholesterol 0.2 mM (cholesterol-high), time point: constant time point | 0.0941 | 1 | -0.886 | -0.0409 | -0.358
growth medium: cholesterol 0.2 mM (cholesterol-high), time point: terminal time point | 0.12 | 1 | -0.872 | 0.362 | -0.612
growth medium: standard 7H9 OADC glycerol, time point: constant = terminal time point (4.2 d) | 0.0573 | 0.969 | 0.0204 | -0.545 | -0.0683
growth medium: valerate 0.1%, time point: constant time point | 0.097 | 0.857 | -0.0498 | – | 0.387
growth medium: valerate 0.1%, time point: terminal time point | 0.0564 | 0.963 | -0.0149 | -0.156 | 0.257

growth medium: hypoxic dormancy (butyrate + nitrate), then recovery
Details | AUC25, [5] | Einf, [3] | GRinf, [1] | log2 fractional inhibitory concentration, [2] | log2 fractional inhibitory concentration, [4]
time point: constant time point | 0.0806 | 0.95 | 0.218 | -1.18 | 0.0759
time point: terminal time point | 0.0478 | 0.902 | 0.508 | 0.502 | 0.726

CO[C@H]1/C=C/O[C@@]2(C)Oc3c(C)c(O)c4c(O)c(c(/C=N/N5CCN(C)CC5)c(O)c4c3C2=O)NC(=O)/C(C)=C\C=C\[C@H](C)[C@H](O)[C@@H](C)[C@@H](O)[C@@H](C)[C@H](OC(C)=O)[C@@H]1C [rifampicin] + CC(=O)NC[C@H]1CN(c2ccc(N3CCSCC3)c(F)c2)C(=O)O1 [sutezolid]
Details | AUC25, [5] | Einf, [3] | GRinf, [1] | log2 fractional inhibitory concentration, [2] | log2 fractional inhibitory concentration, [4]
growth medium: acidic pH 5.7, glycerol, time point: constant time point | 0.0817 | 0.853 | -0.111 | – | 0.233
growth medium: acidic pH 5.7, glycerol, time point: terminal time point | 0.076 | 0.977 | -0.205 | -0.595 | 0.315
growth medium: butyrate 5 mM, time point: constant time point | 0.0989 | 0.911 | 0.0134 | – | -0.239
growth medium: butyrate 5 mM, time point: terminal time point | 0.0783 | 0.953 | -0.0141 | -0.298 | -0.147
growth medium: cholesterol 0.2 mM (cholesterol-high), time point: constant time point | 0.0474 | 0.988 | -0.878 | -0.588 | -0.0927
growth medium: cholesterol 0.2 mM (cholesterol-high), time point: terminal time point | 0.0807 | 1 | -0.728 | -0.315 | -0.136
growth medium: standard 7H9 OADC glycerol, time point: constant = terminal time point (4.2 d) | 0.0433 | 0.969 | -0.0246 | -0.846 | -0.167
growth medium: valerate 0.1%, time point: constant time point | 0.11 | 0.962 | 0.0594 | – | 1.45
growth medium: valerate 0.1%, time point: terminal time point | 0.0701 | 0.979 | -0.0207 | 0.302 | 0.427

growth medium: hypoxic dormancy (butyrate + nitrate), then recovery
Details | AUC25, [5] | Einf, [3] | GRinf, [1] | log2 fractional inhibitory concentration, [2] | log2 fractional inhibitory concentration, [4]
time point: constant time point | 0.0508 | 0.978 | 0.206 | -0.578 | -0.575
time point: terminal time point | 0.06 | 0.971 | 0.237 | -0.678 | 0.255

CC(C)/N=c1\cc2n(-c3ccc(Cl)cc3)c3ccccc3nc-2cc1Nc1ccc(Cl)cc1 [clofazimine] + CC(C)=CCC/C(C)=C/CNCCNC1C2CC3CC(C2)CC1C3 [SQ109]
Details | AUC25, [5] | Einf, [3] | GRinf, [1] | log2 fractional inhibitory concentration, [2] | log2 fractional inhibitory concentration, [4]
growth medium: butyrate 5 mM, time point: constant time point | 0.0628 | 0.941 | -0.113 | -0.83 | -0.227
growth medium: butyrate 5 mM, time point: terminal time point | 0.0621 | 0.973 | -0.111 | -0.678 | -0.367
growth medium: cholesterol 0.05 mM, time point: constant time point | 0.0691 | 0.758 | -0.558 | – | -0.774
growth medium: cholesterol 0.2 mM (cholesterol-high), time point: constant time point | 0.0566 | 0.997 | -0.966 | -0.582 | -0.041
growth medium: cholesterol 0.2 mM (cholesterol-high), time point: terminal time point | 0.0744 | 1 | -0.823 | -0.374 | 0.4
growth medium: standard 7H9 OADC glycerol, time point: constant = terminal time point (4.2 d) | 0.0939 | 0.937 | -0.0512 | – | -0.519

growth medium: hypoxic dormancy (butyrate + nitrate), then recovery
Details | AUC25, [5] | Einf, [3] | GRinf, [1] | log2 fractional inhibitory concentration, [2] | log2 fractional inhibitory concentration, [4]
time point: constant time point | 0.0761 | 0.99 | -0.486 | -2.43 | -1.61
time point: terminal time point | 0.0554 | 0.962 | 0.147 | -1.63 | -1.78

O=[N+]([O-])c1cn2c(n1)OC[C@@H](OCc1ccc(OC(F)(F)F)cc1)C2 [pretomanid] + CC(=O)NC[C@H]1CN(c2ccc(N3CCSCC3)c(F)c2)C(=O)O1 [sutezolid]
Details | AUC25, [5] | Einf, [3] | GRinf, [1] | log2 fractional inhibitory concentration, [2] | log2 fractional inhibitory concentration, [4]
growth medium: acidic pH 5.7, glycerol, time point: constant time point | 0.0784 | 0.879 | -0.246 | – | -0.119
growth medium: acidic pH 5.7, glycerol, time point: terminal time point | 0.0823 | 0.987 | -0.346 | -0.449 | 0.0862
growth medium: butyrate 5 mM, time point: constant time point | 0.0935 | 0.93 | 0.0242 | – | 1.07
growth medium: butyrate 5 mM, time point: terminal time point | 0.0736 | 0.97 | -0.0169 | 1.11 | 0.95
growth medium: cholesterol 0.05 mM, time point: constant time point | 0.0266 | 0.865 | -1 | – | -0.159
growth medium: cholesterol 0.2 mM (cholesterol-high), time point: constant time point | 0.0533 | 0.961 | -0.417 | 0.19 | -0.512
growth medium: cholesterol 0.2 mM (cholesterol-high), time point: terminal time point | 0.0918 | 1 | -0.326 | -0.4 | -0.395
growth medium: standard 7H9 OADC glycerol, time point: constant = terminal time point (4.2 d) | 0.0632 | 0.988 | -0.142 | -0.266 | 0.0178
growth medium: valerate 0.1%, time point: constant time point | 0.119 | 0.974 | -0.158 | – | -0.783
growth medium: valerate 0.1%, time point: terminal time point | 0.0856 | 0.978 | -0.0339 | -0.487 | -0.609

growth medium: hypoxic dormancy (butyrate + nitrate), then recovery
Details | AUC25, [5] | Einf, [3] | GRinf, [1] | log2 fractional inhibitory concentration, [2] | log2 fractional inhibitory concentration, [4]
time point: constant time point | 0.0715 | 0.965 | 0.332 | -0.853 | -0.376
time point: terminal time point | 0.0423 | 0.932 | 0.457 | -0.41 | -0.056

COc1nc2ccc(Br)cc2cc1[C@@H](c1ccccc1)[C@@](O)(CCN(C)C)c1cccc2ccccc12 [bedaquiline] + CC(=O)NC[C@H]1CN(c2ccc(N3CCSCC3)c(F)c2)C(=O)O1 [sutezolid]
Details | AUC25, [5] | Einf, [3] | GRinf, [1] | log2 fractional inhibitory concentration, [2] | log2 fractional inhibitory concentration, [4]
growth medium: acidic pH 5.7, glycerol, time point: constant time point | 0.107 | 0.875 | -0.198 | – | -0.156
growth medium: acidic pH 5.7, glycerol, time point: terminal time point | 0.0983 | 0.978 | -0.241 | -0.436 | -0.088
growth medium: butyrate 5 mM, time point: constant time point | 0.0619 | 0.885 | 0.0684 | – | 2.21
growth medium: butyrate 5 mM, time point: terminal time point | 0.0554 | 0.949 | 0.0372 | 0.353 | 2.08
growth medium: cholesterol 0.05 mM, time point: constant time point | 0.0778 | 1 | -0.927 | 0.332 | 0.352
growth medium: cholesterol 0.05 mM, time point: terminal time point | 0.132 | 1 | -0.972 | 0.434 | -0.0748
growth medium: cholesterol 0.2 mM (cholesterol-high), time point: constant time point | 0.0763 | 1 | -1 | 0.279 | -0.0255
growth medium: cholesterol 0.2 mM (cholesterol-high), time point: terminal time point | 0.115 | 1 | -0.792 | 0.315 | -0.681
growth medium: standard 7H9 OADC glycerol, time point: constant = terminal time point (4.2 d) | 0.048 | 0.977 | -0.0902 | -1.24 | -0.344
growth medium: valerate 0.1%, time point: constant time point | 0.0485 | 0.864 | -0.287 | – | 1.21
growth medium: valerate 0.1%, time point: terminal time point | 0.09 | 0.991 | -0.176 | 0.567 | 0.264

growth medium: hypoxic dormancy (butyrate + nitrate), then recovery
Details | AUC25, [5] | Einf, [3] | GRinf, [1] | log2 fractional inhibitory concentration, [2] | log2 fractional inhibitory concentration, [4]
time point: constant time point | 0.0577 | 0.989 | 0.17 | -0.371 | -0.353
time point: terminal time point | 0.0431 | 0.975 | 0.359 | -0.465 | 0.424

NNC(=O)c1ccncc1 [isoniazid] + CC(C)=CCC/C(C)=C/CNCCNC1C2CC3CC(C2)CC1C3 [SQ109]
Details | AUC25, [5] | Einf, [3] | GRinf, [1] | log2 fractional inhibitory concentration, [2] | log2 fractional inhibitory concentration, [4]
growth medium: butyrate 5 mM, time point: constant time point | 0.0624 | 0.897 | 0.0429 | – | 0.35
growth medium: butyrate 5 mM, time point: terminal time point | 0.0434 | 0.944 | 0.0572 | 0.00828 | 0.29
growth medium: cholesterol 0.05 mM, time point: constant time point | 0.1 | 0.84 | -0.682 | – | 1.02
growth medium: cholesterol 0.2 mM (cholesterol-high), time point: constant time point | 0.0635 | 0.999 | -0.997 | 0.434 | 0.5
growth medium: cholesterol 0.2 mM (cholesterol-high), time point: terminal time point | 0.0743 | 1 | -0.87 | 0.311 | 0.189
growth medium: standard 7H9 OADC glycerol, time point: constant = terminal time point (4.2 d) | 0.0551 | 0.858 | 0.218 | – | 0.45
growth medium: valerate 0.1%, time point: constant time point | 0.0611 | 0.964 | -0.00837 | 0.14 | 0.052
growth medium: valerate 0.1%, time point: terminal time point | 0.0646 | 0.968 | -0.0113 | 0.00427 | 0.109

growth medium: hypoxic dormancy (butyrate + nitrate), then recovery
Details | AUC25, [5] | Einf, [3] | GRinf, [1] | log2 fractional inhibitory concentration, [2] | log2 fractional inhibitory concentration, [4]
time point: constant time point | 0.0841 | 0.994 | -0.408 | 0.0195 | -0.42
time point: terminal time point | 0.0403 | 0.96 | 0.13 | -0.76 | -0.641
